The source made the active and inactive calls. The rule behind the calls is not given here.
What was measured:
[1] = system: Mus musculus; assay: Tested for inhibition of pentylenetetrazole induced seizures in mice; Value is 1/4 of the LD50 range; format: functional
[2] = Tested for acute toxicity in mice after intraperitoneal administration; Value ranges from 400-800 mg/kg; format: organism-based; conditions: mouse, in vivo, ip
[3] = system: Mus musculus; assay: Tested for inhibition of maximal electroshock -induced seizures in mice; Value is 1/8 of the LD50 range; format: functional
[4] = Tested for acute toxicity in mice after intraperitoneal administration; format: organism-based; conditions: mouse, in vivo, ip
[5] = biological target: GABA-A receptor; anion channel; assay: In vitro binding affinity for GABA-A receptor in rat cortical or hippocampal membranes using [3H]flunitrazepam
[6] = biological target: Glutamate NMDA receptor; assay: Inhibition of [3H]CPP binding to N-methyl-D-aspartate glutamate receptor of rat cortical or hippocampal membranes; format: cell membranes, Membrane
[7] = system: Mus musculus; assay: Tested for inhibition of pentylenetetrazole induced seizures in mice; Value is 1/16 of the LD50; format: functional
[8] = system: Mus musculus; assay: Tested for inhibition of maximal electroshock -induced seizures in mice; Value is 1/16 of the LD50; format: functional
[9] = Tested for acute toxicity in mice after intraperitoneal administration; Value ranges from 100-200 mg/kg; format: organism-based; conditions: mouse, in vivo, ip
[10] = system: Mus musculus; assay: Tested for inhibition of pentylenetetrazole induced seizures in mice; Value is 1/8 of the LD50; format: functional
[11] = organism: Mus musculus; assay: Tested for inhibition of pentylenetetrazole induced seizures in mice.; format: functional
[12] = organism: Mus musculus; assay: Tested for inhibition of 3-mercaptopropanoic acid induced seizures in mice.; format: functional
[13] = organism: Mus musculus; assay: Tested for inhibition of quinoline-induced seizures in mice.; format: functional
[14] = organism: Mus musculus; assay: Tested for inhibition of strychnine-induced seizures in mice.; format: functional
[15] = organism: Mus musculus; assay: Tested for inhibition of maximal electroshock -induced seizures in mice; Value ranges from 13-25; format: functional
[16] = system: Mus musculus; assay: Tested for inhibition of pentylenetetrazole induced seizures in mice; Value is 1/16 of the LD50 range; format: functional
[17] = (§1) Tested for acute toxicity in mice after intraperitoneal administration; Value ranges from 200-400 mg/kg; format: organism-based; conditions: mouse, in vivo, ip
[18] = system: Mus musculus; assay: Tested for inhibition of pentylenetetrazole induced seizures in mice; Value is 1/8 of the LD50 range; format: functional
[19] = system: Gerbillinae; assay: Tested for its effect on Hypoxia induced neuronal damage; format: functional
[20] = system: Mus musculus; assay: as §1; format: functional; conditions: ip
[21] = system: Gerbillinae; assay: Tested for its effect on hippocampal neuronal damage in gerbils activity; format: functional
[22] = organism: Mus musculus; assay: Tested for inhibition of maximal electroshock -induced seizures in mice.; format: functional
[23] = organism: Mus musculus; assay: Tested for inhibition of bicuculline induced seizures in mice.; format: functional
[24] = system: Mus musculus; assay: Tested for inhibition of maximal electroshock -induced seizures in mice; Value is 1/4 of the LD50 range; format: functional
[25] = system: Mus musculus; assay: Tested for inhibition of quinoline-induced seizures in mice; g = maximum effect, 50% at 20 mg/kg; format: functional, organism-based; set-up: dose 20 mg/kg
[26] = organism: Mus musculus; assay: Tested for inhibition of pentylenetetrazole induced seizures in mice; Value ranges from 100-200; format: functional
[27] = Tested for acute toxicity in mice after intraperitoneal administration; Value ranges from 400-800; format: organism-based; conditions: mouse, in vivo, ip

CCn1c(-c2ccccc2)nn(C)c1=O
Activity [1]: 200 mg/kg
LD50 [2]: 800 mg/kg
Activity [3]: 100 mg/kg

CCn1nc(-c2cccs2)n(C)c1=O
LD50 [2]: 800 mg/kg

Cn1c(O)nnc1-c1ccc(Cl)cc1
LD50 [4]: > 800 mg/kg
IC50 [5]: > 100 µM
IC50 [6]: > 100 µM
Activity [7]: >50 mg/kg
Activity [8]: >50 mg/kg

Cn1nc(-c2ccccc2)n(C)c1=S
LD50 [9]: 200 mg/kg

CCn1c(O)nnc1-c1ccccc1
LD50 [4]: > 800 mg/kg
Activity [10]: >100 mg/kg

NC(=O)N1c2ccccc2C=Cc2ccccc21 [CARBAMAZEPINE]
ED50 [11]: > 200 mg/kg
ED50 [12]: 86 mg/kg
ED50 [13]: 25 mg/kg
ED50 [14]: 61 mg/kg
ED50 [15]: 25 mg/kg

Cn1c(O)nnc1-c1ccccc1
LD50 [4]: > 800 mg/kg
IC50 [5]: > 100 µM
IC50 [6]: > 100 µM
Activity [16]: >50 mg/kg
Activity [3]: >100 mg/kg

CN[C@H](CC(=O)O)C(=O)O [N-METHYL-D-ASPARTIC ACID (NMDA)]
IC50 [6]: 6 µM

Cn1nc(-c2cccs2)n(C)c1=O
LD50 [2]: 800 mg/kg

CCn1nc(-c2ccc(Cl)cc2)n(CC)c1=O
Activity [3]: 50 mg/kg
LD50 [17]: 400 mg/kg
Activity [18]: 50 mg/kg

CCn1c(O)nnc1-c1ccc(Cl)cc1
Damage score [19]: 2.64
IC50 [5]: > 100 µM
LD50 [20]: 400 mg/kg
IC50 [6]: > 100 µM
Damage score [21]: 0.33
Activity [16]: 25 mg/kg
ED50 [13]: ~51 mg/kg

Cn1nc(-c2ccccc2)n(C)c1=O
LD50 [2]: 800 mg/kg
Activity [18]: 100 mg/kg

Cn1nc(-c2ccccc2F)n(C)c1=O
LD50 [2]: 800 mg/kg
Activity [18]: 100 mg/kg

Cn1c(O)nnc1-c1ccc(F)cc1
LD50 [4]: > 800 mg/kg
IC50 [5]: > 100 µM
IC50 [6]: > 100 µM
Activity [7]: >50 mg/kg
Activity [8]: >50 mg/kg

CCn1c(O)nnc1-c1cccc(C(F)(F)F)c1
LD50 [17]: 400 mg/kg
Activity [18]: 50 mg/kg

Cl.c1ccc(C2(N3CCCCC3)CCCCC2)cc1 [PHENCYCLIDINE HYDROCHLORIDE]
Damage score [19]: <1.14
Damage score [21]: 1.06

CCCCOc1cc(-c2nn(C)c(=O)n2C)ccc1OC
IC50 [5]: 33.2 µM
IC50 [6]: > 100 µM
LD50 [2]: 800 mg/kg
Activity [18]: 100 mg/kg

Oc1n[nH]c(-c2ccccc2)n1
LD50 [4]: > 800 mg/kg

O=C1CN=C(c2ccccc2Cl)c2cc([N+](=O)[O-])ccc2N1 [CLONAZEPAM]
ED50 [11]: 0.06 mg/kg
ED50 [22]: 50 mg/kg
ED50 [12]: 0.2 mg/kg
ED50 [13]: < 8 mg/kg
ED50 [14]: 2 mg/kg
ED50 [23]: 0.07 mg/kg

Cn1c(O)nnc1-c1ccccc1F
LD50 [4]: > 800 mg/kg
Activity [16]: >50 mg/kg

CCC1(c2ccccc2)C(=O)NC(=O)NC1=O [PHENOBARBITAL]
ED50 [11]: 24 mg/kg
ED50 [22]: 20 mg/kg
ED50 [12]: 30 mg/kg
ED50 [13]: 52 mg/kg
ED50 [14]: 52 mg/kg
ED50 [23]: 9 mg/kg

Cn1nc(-c2ccccc2Cl)n(C)c1=O
Activity [24]: 200 mg/kg
LD50 [2]: 800 mg/kg
Activity [18]: 50 mg/kg

CCn1nc(-c2ccccc2)n(C)c1=O
LD50 [2]: 800 mg/kg
Activity [18]: 100 mg/kg

Cc1ccc(-c2nnc(O)n2C)cc1
LD50 [4]: > 800 mg/kg
Activity [10]: >100 mg/kg

O=C1NC(=O)C(c2ccccc2)(c2ccccc2)N1 [PHENYTOIN]
ED50 [11]: > 32 mg/kg
ED50 [22]: 26 mg/kg
ED50 [12]: 89 mg/kg
ED50 [25]: Active
ED50 [14]: > 200 mg/kg
ED50 [23]: > 200 mg/kg

CCn1nc(-c2ccc(Cl)cc2)n(C)c1=O
Activity [16]: 50 mg/kg
LD50 [2]: 800 mg/kg

CCCn1nc(-c2ccc(Cl)cc2)n(CC)c1=O
LD50 [2]: 800 mg/kg

Cn1nc(-c2ccc(Cl)c(Cl)c2)n(C)c1=O
Activity [11]: 50 mg/kg
LD50 [9]: 200 mg/kg
Activity [22]: 50 mg/kg

COc1ccc(-c2nn(C)c(=O)n2C)cc1
LD50 [2]: 800 mg/kg

Cn1c(O)nnc1-c1cccs1
IC50 [5]: > 100 µM
IC50 [6]: > 100 µM
LD50 [17]: 400 mg/kg

Cn1c(O)nnc1-c1ccncc1
LD50 [4]: > 800 mg/kg
IC50 [5]: > 100 µM
IC50 [6]: > 100 µM

CCn1c(-c2ccc(Cl)cc2)nn(C)c1=O
Damage score [19]: 0.97
IC50 [5]: > 100 µM
ED50 [11]: 17 mg/kg
IC50 [6]: > 100 µM
Damage score [21]: 0.33
ED50 [22]: 48 mg/kg
Activity [16]: 20 mg/kg
ED50 [12]: 31 mg/kg
ED50 [13]: 26 mg/kg
ED50 [14]: ~101 mg/kg
Activity [3]: 50 mg/kg
LD50 [17]: 400 mg/kg
ED50 [23]: 15 mg/kg

Cn1nc(-c2ccc(F)cc2)n(C)c1=O
Activity [24]: 200 mg/kg
Activity [1]: 200 mg/kg
LD50 [2]: 800 mg/kg

COc1ccc(-c2nnc(O)n2C)cc1
LD50 [4]: > 800 mg/kg

CCCC(CCC)C(=O)O [VALPROIC ACID]
ED50 [22]: > 200 mg/kg
ED50 [13]: > 256 mg/kg
ED50 [14]: > 200 mg/kg
ED50 [23]: 28 mg/kg
ED50 [26]: 200 mg/kg

Cn1nc(-c2ccc(Cl)cc2)n(C)c1=O
IC50 [5]: > 100 µM
IC50 [6]: > 100 µM
Activity [16]: 50 mg/kg
LD50 [2]: 800 mg/kg
Activity [3]: 100 mg/kg

Cn1c(O)nnc1-c1ccccc1Cl
Damage score [19]: 2.95
IC50 [5]: > 100 µM
IC50 [6]: > 100 µM
Damage score [21]: 0.22
Activity [16]: 50 mg/kg
ED50 [13]: ~65 mg/kg
LD50 [27]: 800 mg/kg
Activity [3]: 100 mg/kg

CCn1c(-c2cccc(C(F)(F)F)c2)nn(C)c1=O
IC50 [5]: > 100 µM
IC50 [6]: > 100 µM
Activity [16]: 50 mg/kg
LD50 [2]: 800 mg/kg
Activity [3]: 100 mg/kg

Cc1ccc(-c2nn(C)c(=O)n2C)cc1
LD50 [2]: 800 mg/kg

CCCCOc1cc(-c2nnc(O)n2C)ccc1OC
LD50 [9]: 200 mg/kg

Cn1nc(-c2ccccc2)nc1O
LD50 [27]: 800 mg/kg
Activity [18]: 100 mg/kg

COc1nnc(-c2ccccc2)n1C
LD50 [4]: > 800 mg/kg

Cn1c(O)nnc1-c1ccc(Cl)c(Cl)c1
IC50 [5]: > 100 µM
IC50 [6]: > 100 µM
Activity [24]: 100 mg/kg
Activity [1]: 100 mg/kg
LD50 [17]: 400 mg/kg
